The target of this test is T1, NK-2 tachykinin receptor (Rattus norvegicus, UniProt P16610).
T1 construct: The vas deferens is dissected free from the surrounding connective tissue and suspended in a 3 ml organ bath; from tissue; host or cells: isolated rat vas deferens (male Wistar rat), longitudinal muscle
T1 sequence (P16610 1-390): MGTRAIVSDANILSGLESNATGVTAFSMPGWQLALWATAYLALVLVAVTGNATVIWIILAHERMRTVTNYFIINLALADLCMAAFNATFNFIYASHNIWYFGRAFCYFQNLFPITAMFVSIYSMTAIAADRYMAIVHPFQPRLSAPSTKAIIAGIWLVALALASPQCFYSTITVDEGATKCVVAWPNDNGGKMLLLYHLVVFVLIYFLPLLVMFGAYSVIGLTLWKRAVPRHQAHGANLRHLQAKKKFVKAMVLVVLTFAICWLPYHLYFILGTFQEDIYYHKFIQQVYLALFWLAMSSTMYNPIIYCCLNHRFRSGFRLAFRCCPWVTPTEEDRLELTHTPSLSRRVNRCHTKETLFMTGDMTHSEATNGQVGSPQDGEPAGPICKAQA
In words: Isolated rat vas deferens preparation: antagonism of eledoisin-induced increase in field-stimulated twitch. Format: cell-based. To be noted: isolated Wistar rat vas deferens, eledoisin as standard agonist, pA2 (-logKb) estimated from dose ratio; for Kb: read-out: pA2 (against eledoisin) (converted). As for the experimental part: The activity of the compounds of the accompanying Examples as tachykinin receptor antagonists was evaluated using the following method:
The tachykinin receptor present in the longitudinal muscle of the rat vas deferens has been characterised, using natural and synthetic tachykinins, as `NK-2`. This preparation is therefore used to determine the selectivity and potency of the peptides for this receptor sub-type.
Male Wistar rats weighing 200-300 g are killed by decapitation. The vas deferens is dissected free from the surrounding connective tissue and suspended in a 3 ml organ bath under an initial resting tension of 1 g. The tissue is maintained at 37° C. in modified KREBS HENSALEIT solution (NaCl 118.4, KCl 4.7, CaCl2 2.5, KH2 PO4 1.18, MgSO4.7H2 O 1.19, NaHCO3 25.0, D-glucose 11.1 mM), which is continuously gassed with a mixture of 95% O2 and 5% CO2. Field stimulated responses are elicited by trains of pulses delivered for 1 second every 20 seconds (7 Hz, 70-80 V, individual pulse duration 0.5 ms). […] Contractions remain reasonably constant for 3-4 hours with no spontaneous changes in resting tension. A dose-cycle of 10-15 minutes is used, drug contact time being about 3-5 minutes.
In all experiments eledoisin is used as a standard agonist. Eledoisin, in the dose range 10^-8 -3×10^-6 M, produces a dose-related increase in twitch height and, to a lesser extent, basal tension. A second dose-response curve is then constructed to the peptide under investigation.
To determine the potency of each peptide as an NK-2 antagonist, the test compound is added to the bathing medium, at an appropriate concentration, 20-30 minutes before the first dose of the second eledoisin dose-response curve. Thereafter addition of the test compound 5-10 minutes before the eledoisin dose is sufficient. The percentage increase in twitch produced by eledoisin in the presence and absence of the antagonist is expressed as a percentage of the maximum response of each individual dose-response curve. Thus all dose-response curves have the same maximum. From the dose ratio an estimate of the pA2 (-logKb) for each test compound can be determined:
pA2 =log[(DR-1)/(antagonist conc.)]

Where a SMILES comes first, the peptide text is derived from it.

Turning to “Ac-LMQWFG-NH2 [Example 6, Acetyl-Leu-Met-Gln-Trp-Phe-Gly-NH2]”, the Kb is 158 nM. Still for that read-out and setting: with `CSCC[C@@H]1NC(=O)[C@H](CC(C)C)N2CC[C@@H](NC(=O)[C@H](Cc3ccccc3)N(C)C(=O)[C@@H](Cc3c[nH]c4ccccc34)NC(=O)[C@H](CCC(N)=O)NC(=O)[C@H](CCSC)NC(=O)[C@H](CC(C)C)N3CC[C@@H](NC(=O)[C@H](Cc4ccccc4)N(C)C(=O)[C@@H](Cc4c[nH]c5ccccc45)NC(=O)[C@H](CCC(N)=O)NC1=O)C3=O)C2=O` [Example 5b, cyclo (Gln-D-Trp-(N-Me)Phe-(R)Gly[ANC-2]Leu-Met2] the figure was 7940 nM; with `CSCC[C@@H]1NC(=O)[C@H](CC(C)C)NC(=O)CNC(=O)[C@H](Cc2ccccc2)NC(=O)[C@H](Cc2c[nH]c3ccccc23)NC(=O)[C@H](CCC(N)=O)NC1=O` [Example 3, Cyclo (Gln-Trp-Phe-Gly-Leu-Met)] (cyclo(FGLMQW)), 10 nM. “Cyclo(Gln-Npa-Phe-(R)Gly[ANC-2]Leu-Met) [Example 2]”: the “pA2 (against eledoisin)” value is recorded as 5.6.
